Results from PubChem BioAssay AID1996.
In brackets after ≈: the same amount, converted by molar mass.

Settings: buffer; pH 7.4; 200.0 µM

| Structure (SMILES) | solubility kinetic [µg/mL] |
| --- | --- |
| S=C(NCCc1ccccc1)N1CCOCC1 | > 37.6 |
| CCOc1ccc(/C=C2\SC(=S)N(CCC(=O)O)C2=O)cc1 | 40.9 (≈ 121 µM) |
| COc1ccc(C(=O)COC(=O)CNC(=O)c2ccc(OC)cc2)cc1 | 17.3 (≈ 48.4 µM) |
| CCOC(=O)c1cc(NC(=O)/C=C\C(=O)O)ccc1Cl | > 44.7 |
| O=C(NCc1ccco1)c1nn2cccnc2c1Cl | > 41.5 |
| O=C1COc2ccc(C(=O)COC(=O)CCOc3ccccc3)cc2N1 | 10.1 (≈ 28.4 µM) |
| Cc1nn(C)c(C)c1NC(=O)COc1ccc(Cl)cc1 | > 44.1 |
| CN(CC(=O)Nc1ccccc1C(=O)NC1CC1)Cc1ccco1 | > 49.1 |
| CN(C)c1cc(-c2cccc([N+](=O)[O-])c2)oc(=O)c1Cl | 1.3 (≈ 4.41 µM) |
| CC(C)c1ccc(C(=O)NCCCNC(=O)c2cnccn2)cc1 | > 49 |
| CCN(c1ccccc1)S(=O)(=O)c1ccc(N2CCN(c3ccc(OC)cc3)CC2)nc1 | 1.2 (≈ 2.65 µM) |
| Cc1nc2ccc(NC(=O)C3COc4ccccc4O3)cc2s1 (stereo not given) | 30.9 (≈ 94.7 µM) |
| CC(=O)Nc1ccc(NC(=O)CC2CCCC2)cc1 | > 39.1 |
| CCOP(=O)(c1ccc(N(C)C)cc1)C(O)c1cccnc1 (stereo not given) | > 48 |
| CN1CCC(N(C)C(=O)c2cc(-c3ccc(F)cc3)nc3ccccc23)CC1.Cl | > 62.1 |
| O=[N+]([O-])c1ccccc1CSc1ccccn1 | 13.7 (≈ 55.6 µM) |
| CCN(CC)S(=O)(=O)c1ccc2[nH]c(=O)c3ccccc3c2c1 | < 0.4 |
| NC(=O)c1ccc(NC(=O)COC(=O)C2CC3C=CC2C3)cc1 (stereo not given) | > 47.2 |
| Cc1ccc(CNC(=O)C(Cc2ccccc2)n2cccc2)cc1 (stereo not given) | 5.3 (≈ 16.6 µM) |
| Nc1c(NCc2ccccc2)c(=O)c1=O | 5.9 (≈ 29.2 µM) |
| CC1(C)CC2(CCCN(C(=S)Nc3ccccc3)C2)CCO1 (stereo not given) | 46.4 (≈ 146 µM) |
| O=S1(=O)CC(O)C(N(CCO)C(=S)Nc2ccccc2)C1 (stereo not given) | 46.2 (≈ 140 µM) |
| C=CCn1c(=S)sc2c(=O)[nH]cnc21 | > 33.8 |
| O=C(O)c1ccc(N2C(=O)c3cccc4cccc(c34)C2=O)cc1 | > 47.6 |

| Structure (SMILES) | solubility kinetic [µg/mL] |
| --- | --- |
| O=C(NCC1CCCCC1)c1cccc(Br)c1 | 2.2 (≈ 7.43 µM) |
| FC(F)(F)c1ccc2c(c1)NCC1CCCN21 (stereo not given) | 13 (≈ 53.7 µM) |
| O=C(O)c1ccc(NC(=O)c2cc3ccccc3o2)cc1 | > 42.2 |
| C=CCC(=O)NC(C)c1cnn(-c2ccccc2C)c1C (stereo not given) | > 42.5 |
| COc1ccccc1Nc1ccc2nonc2c1[N+](=O)[O-] | 2 (≈ 6.99 µM) |
| O=C(Nc1cccc2c1C(=O)NC2=O)c1ccccc1[N+](=O)[O-] | 6.9 (≈ 22.2 µM) |
| CS(=O)(=O)N1CCN(c2ccc(NC(=O)c3ccccc3)cc2)CC1 | 1 (≈ 2.78 µM) |
| COc1ccccc1C(=O)NCC(=O)NCCc1ccc(Cl)cc1 | 38.8 (≈ 112 µM) |
| CCc1nnc(NC(=O)CN2C(=O)NC3(CC(C)CC(C)(C)C3)C2=O)s1 (stereo not given) | > 56.9 |
| Cc1ccccc1NC(=S)NNC(=O)c1ccco1 | > 41.3 |
| O=C(CN1C(=O)S/C(=C/c2ccncc2)C1=O)Nc1ccccc1 | 5.5 (≈ 16.2 µM) |
| O=C(NCc1ccccc1)c1ccc(CSc2ccccc2)o1 | 11.1 (≈ 34.3 µM) |
| CN(C)CC(=O)N1CCc2ccccc2C1.O=C(O)C(=O)O | > 46.2 |
| COC(=O)c1ccccc1NC(=O)Nc1cc(C(C)(C)C)on1 | 16.1 (≈ 50.7 µM) |
| Cn1c(=O)c2c(nc(Oc3ccccc3N)n2C)n(C)c1=O | > 45.2 |
| O=C(c1ccccc1[N+](=O)[O-])N1CCC2(CC1)OCCO2 | > 43.8 |
| O=C(COC(=O)/C=C/c1ccccc1)NC1CC1 | > 36.8 |
| CCN(C(=O)COc1ncnc2sccc12)c1ccccc1 | 42.5 (≈ 136 µM) |
| Cc1onc(-c2ccccc2)c1C(=O)NCCc1ccncc1 | > 46.1 |
| CCCOC(=O)Nc1cc(OC)ccc1[N+](=O)[O-] | 5.7 (≈ 22.4 µM) |
| CC(C)NC(=O)COCc1cc(-c2ccc3c(c2)OCO3)on1 | > 47.7 |
| N#Cc1ccc(OCc2ccc(C(=O)O)o2)cc1 | > 36.5 |
| Cc1ccc(OC(=O)CCC(=O)Nc2ccc(C(N)=O)cc2)cc1 | > 49 |
| CCOC(=O)c1nn(-c2ccc(Cl)cc2)c(C)cc1=O | > 43.9 |

| Structure (SMILES) | solubility kinetic [µg/mL] |
| --- | --- |
| O=C(c1ccc([N+](=O)[O-])cc1)N1CCN(C(=O)C2CCCCC2)CC1 | > 51.8 |
| CCCc1nc(-c2cc3cc(C)ccc3[nH]c2=O)no1 | 15 (≈ 55.7 µM) |
| CC(=O)Nc1ccc(C(=O)CN2C(=O)CSC2=O)cc1 | > 43.8 |
| CC(NC(=O)COC(=O)c1ccccc1O)C1CC2CCC1C2 (stereo not given) | 14.1 (≈ 44.4 µM) |
| Cc1ccc(C(=O)NCCNC(=O)c2ccccn2)cc1 | > 42.5 |
| COC(=O)Cc1ccc(NC(=S)N2CCCCC2C)cc1 (stereo not given) | > 46 |
| Cc1cc(C)cc(C(=O)OCC(=O)Nc2ncccn2)c1 | 37.4 (≈ 131 µM) |
| CC(C)c1ccc(N2C(=O)CC(Sc3ncccn3)C2=O)cc1 (stereo not given) | 4 (≈ 12.2 µM) |
| CSc1sc(C(=O)NCC2CC2)c(-c2cccs2)c1C#N | 8.6 (≈ 25.7 µM) |
| O=C(Nc1ccc(N2CCOCC2)cc1)c1ccc([N+](=O)[O-])o1 | 13.2 (≈ 41.6 µM) |
| NCCCS(=O)(=O)O.O.[Na+] | 2.9 |
| COc1ccc(CC(=O)NCC(C)(C)N2CCOCC2)cc1 | > 46 |
| Cc1ccc(C(=O)NC(=S)Nc2ccc(CN3CCOCC3)cc2)cc1 | 2.7 (≈ 7.31 µM) |
| Cc1onc(-c2ccccc2)c1C(=O)N1CCCC1 | > 38.4 |
| CSc1ncccc1C(=O)Nc1cc(C)ccn1 | > 38.9 |
| CC(NC(=O)NC(=O)c1ccc(F)cc1)C1CC1 (stereo not given) | 16.2 (≈ 64.7 µM) |
| O=C1OCC(c2ccc(Cl)s2)=C1c1ccccc1[N+](=O)[O-] | 22.3 (≈ 69.3 µM) |
| CC1(C)NC(=O)N(CC(=O)N2CCC(Cc3ccccc3)CC2)C1=O | 50.1 (≈ 146 µM) |
| Cc1sc2nc(CC(=O)N3CCCC3)[nH]c(=O)c2c1C | > 43.7 |
| N#Cc1cccc(Cn2cc(C(F)(F)F)ccc2=O)c1 | 41.7 (≈ 150 µM) |
| CC1CN(C(=S)Nc2cccc([N+](=O)[O-])c2)CC(C)O1 (stereo not given) | > 44.3 |
| COCCN1CCn2c(nc3cc(NC(C)=O)ccc32)C1 | 36.4 (≈ 126 µM) |
| CC1CC1C(=O)OCC(=O)NC(=O)c1ccc(C(C)(C)C)cc1 (stereo not given) | 7.5 (≈ 23.6 µM) |
| O=C(O)CCNC(=S)Nc1cccc(F)c1 | > 36.3 |

| Structure (SMILES) | solubility kinetic [µg/mL] |
| --- | --- |
| Cc1cccc(CSc2nc3c(c(-c4cccs4)c2C#N)CN(C)CC3)c1 | 5.8 (≈ 14.8 µM) |
| Oc1ccc(C(=S)N2CCN(c3cccc(Cl)c3)CC2)cc1 | 1.3 (≈ 3.91 µM) |
| O=C(Nc1cccnc1Cl)c1ccc(=O)oc1 | > 37.6 |
| O=S(=O)(NCc1ccc2c(c1)OCO2)c1cccc(F)c1 | > 46.4 |
| S=C(NCC1CCCO1)N1CCc2ccccc2C1 (stereo not given) | > 41.5 |
| Cc1nc(NC(=O)COC(=O)C2CC2C)c(Cl)cc1Cl (stereo not given) | > 47.6 |
| Cn1c(=O)[nH]c(=O)c2c1nc1n2CC(COc2ccc3ccccc3c2)O1 (stereo not given) | 0.4 (≈ 1.1 µM) |
| Cc1noc(NS(=O)(=O)c2ccc(NC(=O)/C=C/c3ccccc3)cc2)c1C | > 59.6 |
| CC(C)C(=O)N1CCN(c2ccccc2NC(=O)c2ccc(Br)o2)CC1 | 52.2 (≈ 124 µM) |
| CCC(Oc1ccccc1C)C(=O)N1CCCN(C)CC1 (stereo not given) | > 43.6 |
| O=C(O)CCN1C(=O)c2ccc(NC(=O)c3ccco3)cc2C1=O | > 49.2 |
| Cn1c(Cc2ccccc2)nnc1SCC(=O)Nc1ccccc1 | > 50.8 |
| COc1ccc(C(=O)/C=C/Nc2ccccn2)c(OC)c1 | 4.2 (≈ 14.8 µM) |
| Cc1ccc(C)c(/C=C2\N=C(c3ccccc3F)OC2=O)c1 | 11.8 (≈ 40 µM) |
| CCN(CC)CC(O)CN1c2ccccc2Sc2ccccc21 (stereo not given) | 44.4 (≈ 135 µM) |
| CC(C)c1ccc(N=Cc2c(O)c3ccccc3oc2=O)cc1 | 4.3 (≈ 14 µM) |
| CC(C)(C)NC(=O)C(=O)NNC(=O)c1ccco1 | > 38 |
| COc1ccc(NC(=O)c2cc(F)c(F)cc2Cl)cc1Cl | < 0.7 |
| Clc1ccc2c(NCc3cccs3)ncnc2c1 | 4.5 (≈ 16.3 µM) |
| N#CC(=NCc1cccnc1)C1=C(O)c2ccccc2C1=O | 6.4 (≈ 22.1 µM) |
| COCCNC(=O)c1ccc2c(c1)ncn2-c1cccc(C)c1 | > 46.4 |
| N#Cc1ccc(-c2csc(-c3ccno3)n2)cc1 | 1.2 (≈ 4.74 µM) |
| Cn1ncc([N+](=O)[O-])c1C(=O)NC1CCCCC1 | > 37.8 |
| CCn1ccnc1CN1CCN(CCC(C)C)C(CCO)C1 (stereo not given) | > 46.3 |

| Structure (SMILES) | solubility kinetic [µg/mL] |
| --- | --- |
| COc1ccccc1C(=O)Nc1ccccc1C(=O)Nc1ccccc1 | < 0.4 |
| COC(=O)c1ccc(NC(=O)C2C3C=CC(C3)C2C(=O)O)cc1 (stereo not given) | > 47.3 |
| O=S(=O)(Nc1ncccn1)c1ccc(F)cc1 | > 38 |
| CCOC(=O)C(=CNc1ccc2c(c1)CCN2C(C)=O)C(=O)OCC | 9.9 (≈ 28.6 µM) |
| NS(=O)(=O)c1ccc(NC(=O)CN2C(=O)c3ccccc3C2=O)cc1 | > 53.9 |
| COc1ccc(C(C)=O)cc1CC(=O)Nc1ccc2c(c1)CCC2 | 7.9 (≈ 24.4 µM) |
| N#Cc1c(F)cccc1NCCCn1ccnc1 | 30.7 (≈ 126 µM) |
| Cl.O=C(NCc1ccccc1)N1CCNCC1 | > 38.4 |
| CCCNC(=O)c1ccccc1NC(=O)C1=CSCCO1 | > 46 |
| COc1ccc(/C=C2\SC(N)=NC2=O)cc1 | 3.9 (≈ 16.6 µM) |
| O=C1CSC(=Nc2cccc([N+](=O)[O-])c2)N1 | > 35.6 |
| CCC(=O)NC(=S)Nc1ccc(NC(=O)c2cccnc2)cc1 | 13.1 (≈ 39.9 µM) |
| NC(=O)C1CCN(CCC(=O)Nc2ccc(F)c(F)c2)CC1 | > 46.7 |
| NC(=O)COC(=O)c1cc(=O)[nH]c2ccccc12 | > 36.9 |
| O=c1cc(-c2ccccc2)c2cc3c(cc2[nH]1)OCCO3 | 1.4 (≈ 5.01 µM) |
| CCOC(=O)CNC(=S)SC | 21.8 (≈ 113 µM) |
| C[C@@H](C(=O)OCC(=O)c1ccc(F)c(F)c1)N1C(=O)C2CCCCC2C1=O (stereo not given in full) | > 56.9 |
| Oc1cccc(Nc2nc(N3CCOCC3)nc(N3CCOCC3)n2)c1 | 46.1 (≈ 129 µM) |
| COC(=O)CN1C(=O)N/C(=C/c2cc(OC)c(OC)cc2C)C1=O | 46.9 (≈ 140 µM) |
| Cc1ccc(N2CN(CCC3=CCCCC3)CNC2=S)cc1 | 5.1 (≈ 16.2 µM) |
| CC(=O)Nc1ccc(S(=O)(=O)NC2CC2)cc1 | 37.6 (≈ 148 µM) |
| O=C(Nc1ccccc1C(=O)Nc1ccc(F)cc1)c1ccco1 | 0.9 (≈ 2.78 µM) |
| CCS(=O)(=O)N1CCC(C(=O)Nc2ccc(C(C)=O)cc2)CC1 | > 50.8 |
| O=C(Nc1ccc(N2CCOCC2)cc1)c1c(F)cccc1Cl | 21.3 (≈ 63.6 µM) |
